Measured values published in patent US12590953B2, “Methods for screening cereblon modifying compounds” (CELGENE CORPORATION, priority 2018, dated 2026).
Entries after “also recorded” stand apart in the source; their conditions may differ. Read-outs that look alike come from different tables or passages of the source.

Columns and labels:
[1] = tested on: SALL4 mRNA; assay: qRT-PCR of SALL4 mRNA in human iPS cells; type: cell-based; conditions: 20 μM thalidomide, 16 hours, normalized with GAPDH
Protocol: Quantitative RT-PCR analysis was performed to human iPS cells treated with DMSO or 20 μM thalidomide (THA) for 16 hours. The relative mRNA level of SALL4 and POU5F1(OCT4) was normalized with GAPDH (n=2, biological replicates).
Total RNA was extracted from human iPS cells using RNeasy Mini Kit (Qiagen) according to manufacturer's instruction, and reverse-transcribed into first-strand cDNA with random primer using SuperScript™ IV First-Strand Synthesis System (ThermoFisher). Real-time PCR was performed in triplicate using ViiA 7 Real-Time PCR System with TaqMan Gene Expression Assay probes (ThermoFisher) for SALL4 (#4351372), POU5F1(#4331182) and GAPDH (#4326317E).

[2] = tested on: SALL4; assay: SALL4 immunohistochemistry in rabbit testis; type: in vivo; conditions: male rabbits
Protocol: Male New Zealand white rabbits were treated with vehicle (1% Carboxymethylcellulose in deionized water), or Thalidomide at either 30 or 150 mg/kg/day for 56 days to investigate testicular degeneration. Testis were collected 24 hours after the last dose, fixed in 10% NBF, processed, embedded in paraffin and sectioned at 4 microns for immunohistochemistry.
Rabbit embryos were stained for SALL4, and mouse testis were stained for SALL4 and ZFP91. Immunohistochemistry (IHC) was performed on the Bond-III automated slide stainer (Leica Microsystems, Buffalo Grove, Ill.) using the Bond Polymer Refine Detection system (Leica Microsystems, DS9800). Formalin fixed paraffin embedded (FFPE) tissues were sectioned at four micron thick and deparaffinized on the Bond-Max instrument. Antigen retrieval was performed with Epitope Retrieval 2 (ER2, pH 9.0) for 20 min at 100° C. The slides were blocked for endogenous peroxidase activity with Peroxide Block for 5 minutes at room temperature. Sections were then incubated with the mouse monoclonal anti-SALL4 EE-30 antibody (Santa Cruz, sc-101147) at a 1:100 dilution for 60 min at room temperature, or with the rabbit monoclonal anti-ZFP91 antibody (Celgene custom clone 122-8-6) at 0.25 ug/ml. […]

[3] = tested on: SALL4 mRNA; assay: In situ hybridization for SALL4 RNA in rabbit embryo limb buds; type: in vivo; conditions: treated vs untreated
Protocol: A fully automated SALL4 ISH assay was performed on Leica BOND RX IHC & ISH stainer with the BOND Research Detection System (Leica, Cat. No. DS9455). Formalin fixed paraffin embedded (FFPE) rabbit embryos were sectioned at four micron thickness, baked at 60° C. for 1 hour and then deparaffinized in Dewax solution at 72° C. Antigen retrieval was performed in Epitope Retrieval 2 (ER2, pH 9.0) for 15 min at 95° C. Custom-designed rabbit SALL4 target probe was applied on the slides and incubated at 42° C. for 2 hours. SALL4 signal was then amplified with the RNAscope LS Multiplex Fluorescent Reagent Kit (ACD, Cat. No. 322800) using the BOND RX default ACD ISH protocol. SALL4 signal was detected with Opal TSA fluorophore 570 (PerkinElmer, Cat. No. FP1488001KT) at a 1:1500 dilution for a 30 min incubation. Slides were then coverslipped manually using ProLong Diamond Antifade Mountant with DAPI (Life Technology, Catalog No. P36966). After whole slide scan at 4× magnification was completed, 40× magnification images were acquired using Perkin Elmer Vectra 3.0 multispectral image platform.

[4] = tested on: huCRBN mice; type: in vivo; conditions: for Live fetuses: female, HOM huCRBN (humanized cereblon)
Protocol: Thalidomide was administered to female HOM huCRBN mice by oral gavage at dose levels of 0 (1.0% [w/v] carboxymethylcellulose [1500-3000 cP] in RO deionized water), 100, 300, or 1000 mg/kg/day once daily on Gestation Day [GD] 6 through 15. On GD 15, blood samples were collected from the submandibular vein of mice assigned to study at 0.5, 1, 3, 6, and 24 hours postdose for bioanalytical and toxicokinetic evaluation. […] Mice were euthanized and examined, and a gross necropsy was performed. The ovaries and uterus were examined for number and distribution of corpora lutea, implantation sites, placentae (size, color, and shape), live and dead fetuses, and early and late resorptions. Fetuses were euthanized by an intraperitoneal injection of sodium pentobarbital (390 mg/mL). Fetuses were weighed and examined for sex and external abnormalities. Late resorptions were examined for external abnormalities and sex to the extent possible. The body weight of each fetus was recorded. Fetuses were individually identified with the study number, litter number and uterine distribution. Approximately one-half of the fetuses in each litter were examined for visceral abnormalities by using an adaptation of the sectioning technique of Wilson. Each fetus was fixed in Bouin's solution; sections were stored in alcohol. The remaining fetuses (approximately one-half of the fetuses in each litter) were examined for skeletal abnormalities after staining with alizarin red S. Following examination, skeletal preparations were retained in glycerin with thymol added as a preservative.

O=C1CCC(N2C(=O)c3ccccc3C2=O)C(=O)N1 (stereo not drawn) [thalidomide]
SALL4 mRNA levels [1]: not reduced by thalidomide treatment (FIG. 7E), and are instead increased; also recorded: decrease in SALL4 protein levels is not due to transcriptional downregulation
SALL4 protein levels in testis ([2]; 150 mg/kg/day): marked decrease; also recorded: caused degradation of both ZFP91 and SALL4
SALL4 protein levels in testis, dose dependence ([2]; 30 or 150 mg/kg/day for 56 days): dose-dependent decrease in SALL4 levels in the testis of male rabbits; also recorded: dose-dependent reduction of SALL4 protein levels in the testis; also recorded: dose dependent decrease in SALL4 levels in rabbit testis
SALL4 mRNA levels (ISH) [3]: not altered upon thalidomide treatment
Maternal survival ([4]; female huCRBN mice, 0, 100, 300, or 1000 mg/kg/day, GD 6 through 15): All animals survived to scheduled necropsy on GD 18
Live fetuses ([4]; mouse, in vivo, 100 mg/kg/day): 9
Live fetuses ([4]; mouse, in vivo, 300 mg/kg/day): 7
Live fetuses ([4]; mouse, in vivo, 1000 mg/kg/day): 8
Limb defects (fetal skeleton, alizarin red S) ([4]; mouse, in vivo, 1000 mg/kg): limb defects were not observed
